From patent US20200055896A1, “SUBSTRATES RECOGNIZED BY FIBROBLAST ACTIVATION PROTEIN (FAP) AND METHODS OF USING THE SAME” (GENENTECH, INC., priority 2017, published 2020)
“Also recorded” adds a separate entry of the source. Each block holds one molecule with its values, some of them ahead of it.

Tests used:
[1] = test system: GP probe cleaving activity in plasma; assay: GP cleavage in mouse plasma in the presence of cpd60 and/or KYP; format: biochemical, mice
Description: (§1) Mouse plasma samples were prepared in K3-EDTA MiniCollect tubes (Greiner Bio-One, 450475) and frozen immediately at −80° C. prior to analysis. Human serum samples were obtained from healthy donors or purchased from Discovery Life Sciences, Inc. (Los Osos, Calif.).
(§2) Peptides of the region flanking the C-terminal human FGF21 cleavage site (VGPSQG) or a variant with D-alanine at P2 (VaPSQG) were synthesized (Anaspec, Inc.), containing an amine-terminal donor (HyLite Fluor 488 or Cy5.5 for aP NIRF) and a dark quencher-acceptor (QXL 520 or QSY21 for aP NIRF) conjugated to a supplementary C-terminal lysine. ANPFAP (Bioconjugate Chem 23:1704-11) and aP NIRF were synthesized by CPC Scientific (Sunnyvale, Calif.). Assays were conducted at 37° C. in 50 mM HEPES (pH 7.2), 150 mM NaCl, 1 mM EDTA, 0.1 mg/ml BSA. The excitation/emission wavelengths of cleaved peptide are 490/520 nm or 675/695 nm for ANPFAP and aP NIRF. Fluorescence was monitored on a Tecan M1000 Pro plate reader in kinetic mode. Except where indicated otherwise, measurements of serum or plasma FAP activity were performed with the peptide substrate concentration at 6 μM and a 10-fold dilution of serum or plasma in assay buffer.

circulating FAP activity = target: T1, circulating FAP activity (Mus musculus, UniProt P97321); assay: In vivo pharmacological FAP inhibition: mice fed chow with cpd60, plasma FAP activity by aP peptide; details: chow with 100 ppm cpd60 ad libitum, day 4 and 7
T1 construct: the extracellular domain encoding the active enzyme can be shed from the cell surface; from tissue; host or cells: mouse plasma (C57BL/6 background; Fap +/+, +/-, -/-)
T1 sequence (P97321 24-761 limits assumed): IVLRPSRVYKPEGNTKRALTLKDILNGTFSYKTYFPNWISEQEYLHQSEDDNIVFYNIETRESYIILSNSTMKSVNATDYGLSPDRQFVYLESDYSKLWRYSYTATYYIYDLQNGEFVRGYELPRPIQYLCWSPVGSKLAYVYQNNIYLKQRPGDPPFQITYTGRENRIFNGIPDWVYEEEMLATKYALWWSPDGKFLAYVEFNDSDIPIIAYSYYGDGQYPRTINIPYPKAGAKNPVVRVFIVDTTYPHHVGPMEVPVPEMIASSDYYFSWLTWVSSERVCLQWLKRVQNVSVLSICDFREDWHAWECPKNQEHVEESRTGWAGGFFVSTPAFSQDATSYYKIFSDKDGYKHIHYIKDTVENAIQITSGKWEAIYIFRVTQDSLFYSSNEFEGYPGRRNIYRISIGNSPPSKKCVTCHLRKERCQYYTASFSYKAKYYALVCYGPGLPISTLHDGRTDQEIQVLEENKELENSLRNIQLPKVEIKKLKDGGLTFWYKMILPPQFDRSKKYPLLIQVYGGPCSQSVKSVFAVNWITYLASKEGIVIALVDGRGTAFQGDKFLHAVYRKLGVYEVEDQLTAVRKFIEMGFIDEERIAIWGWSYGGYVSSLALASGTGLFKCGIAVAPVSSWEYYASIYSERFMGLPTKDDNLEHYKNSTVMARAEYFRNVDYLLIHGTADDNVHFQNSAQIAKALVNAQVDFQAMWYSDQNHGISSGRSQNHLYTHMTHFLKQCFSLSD
Description: Mice were maintained in a pathogen-free animal facility at 21° C. under standard 12 h light/12 h dark cycle with access to normal chow (Labdiet 5010) and water ad libitum unless otherwise indicated. Generation of Fap KO mice was described previously (Dunshee, et al. (2016) J Biol Chem 291:5986-96).
as §1
as §2, with “Except where indicated otherwise, measurements of serum or plasma FAP activity were performed with the peptide substrate concentration at 6 μM and a 10-fold dilution of serum or plasma in assay buffer.” left out

FAP-related activity = details: cynomolgus monkeys, cited from earlier work
recombinant human PREP = target: T2, recombinant human PREP (Homo sapiens, UniProt P48147); assay: FRET-quench assay: probe cleavage by recombinant human PREP; format: biochemical; details: 10 nM enzyme
T2 construct: purchased R&D Systems 4308-SE
T2 sequence (P48147 1-710): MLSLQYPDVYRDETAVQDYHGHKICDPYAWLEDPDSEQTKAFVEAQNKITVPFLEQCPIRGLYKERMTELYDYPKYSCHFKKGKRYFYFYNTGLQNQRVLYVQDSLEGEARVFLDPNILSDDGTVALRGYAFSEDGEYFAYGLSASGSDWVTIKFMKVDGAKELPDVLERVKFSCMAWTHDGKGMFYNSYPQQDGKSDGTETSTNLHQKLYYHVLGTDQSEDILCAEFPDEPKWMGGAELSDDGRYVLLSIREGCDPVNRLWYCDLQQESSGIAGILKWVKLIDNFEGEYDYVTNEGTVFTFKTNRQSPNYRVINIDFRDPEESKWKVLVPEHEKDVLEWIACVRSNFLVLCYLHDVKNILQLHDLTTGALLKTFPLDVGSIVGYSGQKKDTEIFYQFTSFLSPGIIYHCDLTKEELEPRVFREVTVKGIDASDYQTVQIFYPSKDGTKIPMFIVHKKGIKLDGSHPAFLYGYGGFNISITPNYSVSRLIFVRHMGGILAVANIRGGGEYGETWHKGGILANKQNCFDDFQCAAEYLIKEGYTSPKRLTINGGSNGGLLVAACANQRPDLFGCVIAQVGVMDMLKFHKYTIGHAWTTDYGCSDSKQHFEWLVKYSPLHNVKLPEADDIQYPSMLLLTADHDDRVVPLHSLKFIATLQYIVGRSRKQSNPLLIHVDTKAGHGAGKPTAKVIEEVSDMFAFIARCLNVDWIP
From the text: (§3) Human prolyl oligopeptidase (PREP, 4308-SE), DPPIV (1180-SE), DPP9 (5419-SE), and DPPII/DPP7 (3438-SE) proteins were purchased from R&D Systems. Human DPP8 (BML-SE527) protein was purchased from Enzo Life Sciences. N-terminal octa-His-tagged human and mouse FAP proteins containing the extracellular domain (residues L26-D760 and L26-D761, respectively) were purified from the conditioned media of transiently-transfected CHO cells, by immobilized metal affinity chromatography (IMAC), followed by size exclusion chromatography (SEC).
as §2

recombinant human FAP = target: T3, recombinant human FAP (Homo sapiens, UniProt Q12884); assay: FRET-quench assay: probe cleavage by recombinant human FAP; format: biochemical; details: 10 nM enzyme
T3 construct: (residues L26-D760 and L26-D761, respectively); octa-His (N); made in house; host or cells: transiently transfected CHO cells (conditioned media)
T3 sequence (Q12884 26-760): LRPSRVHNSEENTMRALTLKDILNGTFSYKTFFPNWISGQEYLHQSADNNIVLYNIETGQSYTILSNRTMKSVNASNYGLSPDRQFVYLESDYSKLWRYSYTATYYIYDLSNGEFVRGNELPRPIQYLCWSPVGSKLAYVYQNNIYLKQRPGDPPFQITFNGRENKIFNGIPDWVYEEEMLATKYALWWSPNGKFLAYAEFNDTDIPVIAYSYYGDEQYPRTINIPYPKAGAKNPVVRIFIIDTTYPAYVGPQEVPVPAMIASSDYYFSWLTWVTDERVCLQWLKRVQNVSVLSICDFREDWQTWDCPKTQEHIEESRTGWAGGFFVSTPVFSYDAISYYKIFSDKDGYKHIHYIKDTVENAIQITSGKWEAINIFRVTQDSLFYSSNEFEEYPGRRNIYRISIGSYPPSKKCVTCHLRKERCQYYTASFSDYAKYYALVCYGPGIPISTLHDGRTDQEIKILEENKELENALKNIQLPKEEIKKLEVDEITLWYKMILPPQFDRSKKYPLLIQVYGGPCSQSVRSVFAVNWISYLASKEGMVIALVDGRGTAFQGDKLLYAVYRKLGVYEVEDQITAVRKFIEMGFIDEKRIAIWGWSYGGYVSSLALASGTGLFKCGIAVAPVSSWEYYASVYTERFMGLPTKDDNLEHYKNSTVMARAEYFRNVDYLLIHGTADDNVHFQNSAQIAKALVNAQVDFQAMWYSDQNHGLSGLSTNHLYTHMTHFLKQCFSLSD
From the text: as §3, §2

tissue FAP activity = target: T4, tissue FAP activity (Mus musculus, UniProt P97321); assay: Ex vivo NIRF imaging of pancreata after i.v. probe in KPP and healthy C57BL/6 mice
T4 construct: from tissue
T4 sequence (P97321 1-761): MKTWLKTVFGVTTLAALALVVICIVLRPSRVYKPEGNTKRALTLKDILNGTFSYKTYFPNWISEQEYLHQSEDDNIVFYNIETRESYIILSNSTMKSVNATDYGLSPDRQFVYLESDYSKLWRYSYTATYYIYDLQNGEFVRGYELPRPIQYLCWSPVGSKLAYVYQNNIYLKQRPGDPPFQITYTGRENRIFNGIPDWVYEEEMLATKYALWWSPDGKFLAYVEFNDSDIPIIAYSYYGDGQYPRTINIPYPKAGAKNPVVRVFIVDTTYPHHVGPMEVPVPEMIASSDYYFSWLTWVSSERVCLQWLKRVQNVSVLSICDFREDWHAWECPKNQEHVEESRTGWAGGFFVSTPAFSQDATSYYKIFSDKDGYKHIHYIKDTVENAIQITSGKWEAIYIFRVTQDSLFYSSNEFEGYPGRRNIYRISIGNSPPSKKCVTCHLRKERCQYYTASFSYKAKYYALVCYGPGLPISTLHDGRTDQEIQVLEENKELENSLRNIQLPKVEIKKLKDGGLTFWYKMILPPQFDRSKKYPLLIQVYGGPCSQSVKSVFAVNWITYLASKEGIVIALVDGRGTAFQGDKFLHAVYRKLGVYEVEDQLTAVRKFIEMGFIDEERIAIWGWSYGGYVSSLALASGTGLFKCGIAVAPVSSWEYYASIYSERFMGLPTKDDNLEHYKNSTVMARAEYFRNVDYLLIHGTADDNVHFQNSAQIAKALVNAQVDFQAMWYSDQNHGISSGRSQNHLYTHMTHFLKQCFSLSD
From the text: The utility of the VaPSQG-NIRF probe for imaging of tissue FAP activity was studied in a genetically engineered mouse model of pancreatic cancer, KrasLSL.G12D/wt;p16/p19fl/fl;Pdx1. Cre, or “KPP” for short (Singh, M. et al. Nat. Biotechnol. 28:585-593 (2010); Aguirre, A. J. et al. Genes Dev. 17:3112-26 (2003)). […] The VaPSQG-NIRF probe was synthesized by CPC Scientific (Sunnyvale, Calif.).
Prior to the imaging study, three KPP mice (9.3 weeks old) with varying tumor volumes were selected based on an in vivo ultrasound scan. Additionally, three healthy C57BL/6 mice (8.3 weeks old) were also studied as controls. One nmol VaPSQG-NIRF probe diluted in 150 microL of PBS was intravenously administered to each mouse via tail vein under anesthesia. […] After 4 hours, the mice were euthanized and pancreas tissues were dissected. The dissected tissues were rinsed with PBS, dried with tissue paper, and put on black paper for ex vivo NIRF imaging. Near infrared images are acquired using a CCD camera (Pearl Trilogy, Li-cor).

Molecule: N#C[C@@H]1CCCN1C(=O)[C@@H]1CCCN1C(=O)CCCc1ccccc1 [KYP-2047]
- sensitivity of residual GP probe cleaving activity to the inhibitor ([1]; Fap KO plasma): sensitive

Molecule: N#C[C@@H]1CC(F)(F)CN1C(=O)CNC(=O)c1ccnc2ccccc12 [cpd60]
- sensitivity of GP probe activity to the inhibitor ([1]; WT or heterozygous plasma): clearly sensitive
- suppression of circulating (plasma) FAP activity (circulating FAP activity): completely suppress; also recorded: undetectable levels; also recorded: completely suppressed
- change in FAP-related activity (FAP-related activity; bolus p.o.): transient decrease
- clearance from circulation (FAP-related activity): rapid clearance

- cleavage by recombinant human PREP (recombinant human PREP): not
- cleavage by recombinant human FAP (recombinant human FAP): efficiently cleaves
- relative fluorescence intensities normalized to imaging area, KPP versus healthy control pancreata (tissue FAP activity; 4 hours after 1 nmol i.v., P<0.05): much greater fluorescence
- ex vivo imaging fluorescent signal of pancreata (tissue FAP activity; KPP group, 4 hours after 1 nmol i.v.): strong fluorescent signal
Molecule: aP NIRF: identical to aP, but the FRET donor and quencher replaced with Cy5.5 and QSY21
- treatment-related adverse effect (tissue FAP activity; mice, 1 nmol i.v. via tail vein, until euthanasia after 4 hours): No treatment-related adverse effect was observed
